Measured values taken from patent publication US20080032418A1, “Cell Free Assay Systems For Identifying A Substance Of Interest” (priority 2003, published 2008).

What was measured:
[1] = molecular target: T1, serotonin receptor 5HT2C with a C-terminal His tag (Rattus norvegicus, UniProt P08909); assay: immunoprecipitation binding assay (anti-MBP, protein A beads, imidazole elution, fluorescence); conditions: receptor 0.2 μM, perylene 0.4 μM, overnight at 4° C.; FIGS. 5-7
T1 construct: made in house; host or cells: bacteria (E. coli is named as the preferred host for the MBP system)
T1 sequence (P08909 with tags, fused parts or gaps): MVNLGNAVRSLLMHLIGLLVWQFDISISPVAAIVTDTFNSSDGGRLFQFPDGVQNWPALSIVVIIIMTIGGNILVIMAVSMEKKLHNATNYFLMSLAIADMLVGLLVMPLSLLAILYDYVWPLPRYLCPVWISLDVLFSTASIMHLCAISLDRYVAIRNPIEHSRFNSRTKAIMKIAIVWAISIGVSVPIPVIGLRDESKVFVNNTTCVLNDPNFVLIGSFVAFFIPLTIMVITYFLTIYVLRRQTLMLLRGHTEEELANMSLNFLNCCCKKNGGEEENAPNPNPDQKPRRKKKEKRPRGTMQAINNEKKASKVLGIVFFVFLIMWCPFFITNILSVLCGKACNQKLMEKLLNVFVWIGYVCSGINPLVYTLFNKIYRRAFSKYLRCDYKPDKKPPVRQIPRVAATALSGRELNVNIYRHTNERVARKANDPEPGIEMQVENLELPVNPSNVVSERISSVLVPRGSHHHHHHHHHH
Protocol: In these experiments, the affinity purified receptor (0.2 μM), and either compound 1, or control glycine-perylene (0.4 μM), were combined, in a total volume of 0.1 ml, and incubated on a rocking platform overnight, at 4° C. Further controls were provided, by taking samples of the two perylene molecules and treating them in the absence of protein.
All washes were retained for fluorescence measurements.
Perylene molecules were eluted from the bead bound proteins using 0.5M imidazole. Fluorescence of all samples and washes was measured, using a spectrofluorometer, excitation at 480 nm, and emission scan at 500-650 nm. Peak fluorescence was detected at 533-535 nm.

[2] = tested on: any of the receptor molecules described in example 1; conditions: 1.1 μM receptor, 2.5 μM compound 1, overnight at 4° C., Superose 6 gel filtration, excitation 485 nm, emission 535 nm
Protocol: This example describes the chelation of the compound of example 4 to any of the receptor molecules described in example 1 and purification of the receptor-perylene complexes by gel filtration chromatography.
The receptor was affinity purified, following standard methods, and 1.1 μM of the molecule was combined with 2.5 μM of compound 1, in a total volume of 0.5 ml. The materials were incubated on a rocking platform, overnight, at 4° C. The mixture was then loaded onto a 20 ml column of Superose 6 Prep gel filtration media, and washed with running buffer (20 mM Tris, pH 7.4, 150 mM NaCl, 0.05% maltoside/0.01% CHS), to remove any unbound perylene. A total of 60 separate, 0.5 ml fractions were collected. A portion of each fraction was loaded into 60 wells of a 96 well plate, and fluorescence was measured at an excitation of 485 nm, and emission of 535 nm. Since the fluorescence quantum yield of perylene bound to receptor differs from that of unbound perylene, fluorescence was also measured after dissociating receptor-perylene complexes by adding imidazole to a final concentration of 0.5M to each of the fractions. A portion of each column fraction was loaded onto denaturing polyacrylamide gel, separated by electrophoreses, transferred to PVDF membranes, and receptor protein containing fractions were identified, using anti-MBP antibodies.

CCCCCCC(CCCCCC)N1C(=O)c2ccc3c4ccc5c6c(ccc(c7ccc(c2c37)C1=O)c64)C(=O)N(CCCCC(C(=O)[O-])N(CC(=O)[O-])CC(=O)O)C5=O.[Ni+2] (centres unmarked) [compound 1, N-(1-hexylheptyl)-N′-(nickel (II)-5-(1-carboxyl-1-(N-dicarboxylmethyl)pentyl))perylene-3,4,9,10-tetracarboxylic-diimide]
binding to the receptor (fluorescence following overnight elution with 0.5M imidazole) [1]: bound to the receptor and required elution
portion of the total perylene bound to receptor protein [2]: roughly one-third
